Here are results for six compounds from patent US9024055B2, “Acetaminophen conjugates, compositions and methods of use thereof” (Acorda Therapeutics, Inc., priority 2011, dated 2015).

The structures appear in SMILES notation. ≈ marks a conversion by molar mass, not a printed value. Where two headings read alike, the source gives them in different places.

Usually solubility stands for the concentration that dissolves in the medium under given conditions.

The nature of series [1]: Human liver microsome-mediated metabolism (appearance of acetaminophen). As to conditions: for Stability in buffer: phosphate buffer at 37° C. (human microsome study). How it is done:
The appearance of acetaminophen (APAP) when Test Articles A, B or C are incubated in human liver microsomes at 37° C. was determined. Loss of APAP-d4 was also monitored.
One lot consisted of ˜150 human mixed gender liver microsomes was purchased from BD Biosciences and stored frozen at −80° C. until use. Compounds were weighed immediately prior use. Test Article A, Test Article B, and Test Article C were weighed on a microbalance and dissolved in water to generate individual stock solutions, each at a concentration of 3.31 mM. Purity was taken into account for each stock solution prepared. APAP-d4 was weighed on a microbalance and dissolved in water to generate a stock solution at a 3.31 mM concentration. Purity was taken into account for the stock preparation.
One part Test Articles A, B or C and one part APAP-d4 was added to three parts water to arrive at an intermediate solution consisting of 662 μM for each compound.
The intermediate solutions prepared above were added to phosphate buffer to arrive at solutions consisting of 8.827 μM of each compound; these were called Substrate solutions. Incubation wells were placed in a wet ice-bath. 750 μL of Substrate solution was added to the appropriate wells. […] 50 μL of Microsomal suspension (20 mg/mL) was added to the appropriate wells. […] Samples were pre-incubated by shaking at 37° C. for 5 minutes. Just prior to starting the reactions in the next step 80 μL aliquots were removed and “killed” with 200 μL of Stop solution; these were the 0 min samples.
Reactions for the remaining samples were started by adding 180 μL Cofactor Solution (5×) to the appropriate wells. […] A 20 μL aliquot of Cofactor Solution (5×) was added to the stopped 0 min samples. […] At 2.5, 5, 10, 30, 60, 120, and 240 minutes, 100 μL of the specified incubation sample was removed and “killed” with 200 μL of Stop Solution. Once all required samples were collected, the plate was centrifuged at 3000 rpm for 10 minutes to pellet the precipitated proteins, and the resultant supernatants were transferred to a fresh 96-well plate for extraction and analysis.
Samples were analyzed for acetaminophen and acetaminophen-d4 concentrations, using a method that employs HPLC and MS/MS detection.
On the technique in general: Microsomes from liver hold many membrane-bound enzymes, among them those of drug oxidation.

A short description of series [2]: Solubility testing, initial protocol (Example 17A), HPLC. It counts as physicochemical. The conditions noted are these: thermodynamic from solid, 18 ° C. How it is done:
10-60 mg of Test Article A was weighed into a 1 mL micro centrifuge tube. 100 μL of solvent was added. Samples were mixed using a vortex mixer, and then sonicated for 15 minutes at ambient temperature. In the event of complete dissolution, more solute was added. The resultant suspensions were centrifuged to yield an off-white saturated solution. A small aliquot of the supernatant was diluted prior to analysis by HPLC.
(§1) A HPLC method was developed to quantify Test Article A concentration via external standard analysis, and also monitor and quantify the hydrolysis product APAP. Linearity was determined over the range 20 to 120 μg/mL, and reproducibility was determined at 100 μg/mL.

Series [3] is described as follows: Stability in PBS at 37° C. (control matrix). It counts as physicochemical. As to conditions: out to four hours. How it is done:
(§2) Loss of deuterated acetaminophen (APAP-d4) was also monitored in order to account for compound losses due to the metabolism of acetaminophen. Stability of the test samples in PBS at 37° C. was also determined.
(§3) Five lots of human whole blood (lithium heparin) were purchased from Biochemed and stored refrigerated at +5° C.±3° C. until use. Five lots of SD Rat whole blood (lithium heparin) were purchased from Biochemed and stored refrigerated at +5° C.±3° C. until use. Phosphate-buffered saline was used as a control matrix; it was prepared in-house and stored refrigerated at +5° C.±3° C. until use. Test Articles were weighed immediately prior use.
(§4) Whole blood was removed from storage and allowed to reach room temperature. It was pooled by species at this time. Once the pool reached room temperature, individual 1,980 μL aliquots of the whole blood pool were added to the appropriate tubes on test. Individual 1,980 μL aliquots of blank phosphate buffered saline (PBS) were added to the appropriate tubes on test. All tubes were pre-incubated at 37° C. in a water bath for 5 minutes.
The appropriate intermediate solution was added to each tube on test such that the final concentration of the test article in blood was 6.62 μM. The compound was assayed in triplicate at this concentration. Nominal O-minute samples were aliquoted into a 96-well plate as soon as spiking solution was added. Just prior to a 150 μL sample transfer, 450 μL of acetonitrile:methanol (1:1) was placed in the individual receiving wells in order to stop conversion reactions. The plate containing “stopped” samples was held, covered, in a wet-ice bath until all remaining timepoints were aliquoted. All remaining spiked samples were incubated at 37° C. in a water bath throughout the sampling period. […] Just prior to each transfer, 450 μL, of acetonitrile:methanol (1:1) was placed in the receiving wells for those aliquots in order to stop conversion reactions.

Series [4] can be described thus: Test article pharmacokinetics in rats after a single oral or intravenous dose; plasma acetaminophen by LC-MS/MS. It counts as in vivo, Sprague-Dawley rats. The conditions noted are these: for Acetaminophen exposure compared with administration of acetaminophen: equivalent acetaminophen doses, oral and intravenous. How it is done: Forty-eight (48) male and female Sprague-Dawley rats were assigned to eight dose groups consisting of three animals per test article per dose route per gender. There were four test articles including acetaminophen, obtained from Sigma-Aldrich, and three acetaminophen conjugates as set forth below.
The animals received a single dose (oral or intravenous) of the test articles via oral gavage or slow intravenous bolus. […] Cage-side observations were performed daily; body weights were recorded prior to each dosing day. Blood samples for pharmacokinetic (PK) analyses were collected at 5 minutes to 8 hr post-dose and acetaminophen plasma concentrations were measured via a LC-MS/MS method.
Non-compartmental pharmacokinetic analysis was conducted for mean plasma acetaminophen concentrations for each test article. Measures of acetaminophen exposure (e.g., AUClast) were typically greater in female animals than male animals for all test articles and for both the oral and intravenous routes of administration.

A short description of series [5]: Rat liver microsome-mediated metabolism (appearance of acetaminophen). It counts as in vitro ADME. As to conditions: for Stability in buffer: phosphate buffer at 37° C. (rat microsome study). How it is done:
Loss of APAP-d4 was also monitored.
Lot 62548 consisting of ˜334 male rat livers and lot 59232 consisting of 10 female rat livers were pooled at a 1:1 ratio just before use. […] Compounds were weighed immediately prior to use. […] Purity was taken into account for the stock preparation.
Incubation wells were placed in a wet ice-bath.

Series [6] can be described thus: Solubility via modified protocol with water bath equilibration (Example 17B), HPLC. It counts as physicochemical. How it is done: 10-60 mg of Test Article A was weighed into a 1 mL micro centrifuge tube. 100 μL of solvent was added. Samples were mixed using a vortex mixer, and then sonicated for 15 minutes at ambient temperature. In the event of complete dissolution, more solute was added. The resultant suspensions were equilibrated in a water bath for 20 minutes and were centrifuged for 1 minute to yield an off-white saturated solution. The samples were then equilibrated a further 20 minutes in the water bath. 5-10 μL aliquots of the supernatant were diluted into 25 mL of mobile phase using volumetric flasks, prior to analysis by HPLC.
as §1

For series [7] the following is noted: cited from earlier work.
The conditions of series [8]: Goodman and Gillman's 10th ed; cited from earlier work.
The conditions of series [9]: cited from earlier work. The source holds these as a separate data set.
Series [10] in a line: Solubility in phosphate-buffered saline (pH 7.2) at room temperature (Example 18). The conditions noted are these: pH 7.2, aqueous buffer.
Series [11] is described as follows: Hydrolysis and metabolism in human whole blood at 37° C. (appearance of acetaminophen). It counts as in vitro ADME. The conditions noted are these: human whole blood vs PBS. How it is done:
as §2, §3
(§5) Purity was taken into account for the stock preparation.
Whole blood was removed from storage and allowed to reach room temperature. It was pooled by species at this time. Once the pool reached room temperature, individual 1980 μL aliquots of the whole blood pool were added to the appropriate tubes on test. All tubes were pre-incubated at 37° C. in a water bath for 5 minutes.
The appropriate intermediate solution was added to each tube on test such that the final concentration of the test article in blood was 6.62 μM. The compound was assayed in triplicate at this concentration. Nominal O-minute samples were aliquoted into a 96-well plate as soon as spiking solution was added. […]

Series [12] can be described thus: Hydrolysis and metabolism in rat whole blood at 37° C. (appearance of acetaminophen). It counts as in vitro ADME, SD Rat. As to conditions: rat whole blood vs PBS. How it is done:
as §2, §3, §5, §4
The appropriate intermediate solution was added to each tube on test such that the final concentration of the test article in blood was 6.62 μM. The compound was assayed in triplicate at this concentration. […]

In the next series the test system is alkaline phosphatase. As to conditions: with alkaline phosphatase; cited from earlier work.
Setting [13] is: with and without cofactor, compared with buffer, 37° C., up to 240 minutes.
The mark [14] stands for this setting: Anesthesia and Analgesia 101, 90-96, 2005.
The mark [15] stands for this setting: British Journal of Anaesthesia 94 (5): 642-648, 2005.

For `CC(=O)Nc1ccc(OC(=O)SCCS(=O)(=O)[O-])cc1.[Na+]` [Test Article A, Sodium 2-((4-acetamidophenoxy)carbonylthio)ethanesulfonate], the Stability in buffer entry in [1] and in series [5] was “stable” throughout. The “Conversion to acetaminophen in human liver microsomes” value in series [1] (setting [13]) is on record as “at a level greater than incubations with buffer”. Moreover, the solubility at 15 min amounted to 246 mg/mL in series [2] (aqueous buffer, PBS); 199 mg/mL in [2] (aqueous with cosolvent or surfactant or cyclodextrin, 50% Water, Ethanol); 1 mg/mL in [2] (organic solvent or mixture, Ethanol); 280 mg/mL in [2] (Water, initial protocol). Besides, the “Stability in PBS” value in [3] is recorded as “rather stable”. Moreover, the “Acetaminophen exposure compared with administration of acetaminophen” value in [4] is “as great as, or greater than”. The “Time to maximum acetaminophen plasma concentration compared with Test Articles C and B” value in series [4] (oral administration) is on record as “longer time to maximum acetaminophen plasma concentrations”. Besides, the “Conversion to acetaminophen in rat liver microsomes” value in series [5] (setting [13]) is “at a level much greater than incubations with buffer”. Also, the solubility at 40 min in series [6] (PEG-400, 19 °C, organic solvent or mixture, thermodynamic from solid) is 103 mg/mL; in series [6] (PEG-400/water (50% water), 19 °C, aqueous with cosolvent or surfactant or cyclodextrin, thermodynamic from solid), 306 mg/mL; in series [6] (pH 5 buffer, 19 °C, pH 5, aqueous buffer, thermodynamic from solid), 226 mg/mL; in series [6] (pH 6.5 buffer, 19 °C, pH 6.5, aqueous buffer, thermodynamic from solid), 198 mg/mL; in [6] (pH 6.5 buffer, 35 °C, pH 6.5, aqueous buffer, thermodynamic from solid), 406 mg/mL; in series [6] (pH 8 buffer, 19 °C, pH 8, aqueous buffer, thermodynamic from solid), 198 mg/mL. Further, the solubility at 40 min was 69 mg/mL in series [6] (propylene glycol, 19 °C, organic solvent or mixture, thermodynamic from solid); 185 mg/mL in series [6] (propylene glycol/water (50% water), 19 °C, aqueous with cosolvent or surfactant or cyclodextrin, thermodynamic from solid); 230 mg/mL in series [6] (water, 19 °C, thermodynamic from solid, Water Repeat, modified protocol). Further, the solubility in [6] (pH 6.5 Buffer, 19 ° C.) turned out to be 210 mg/mL; in series [6] (water, 0 °C, water, thermodynamic from solid, Water (in Fridge), 0 to 4 ° C., read-out: Solubility), 78 mg/mL.
As for `CC(=O)Nc1ccc(O)cc1` [Acetaminophen, N-(4-hydroxyphenyl)acetamide], the Local tolerance profile in series [7] (setting [14]) is on record as 0%; in series [7] (setting [15]), 52%. Further, in [8], the Half-life entry is on record as “about 2 hours”. In addition, the Water solubility entry in series [9] is recorded as “about 1.3 g per 100 mL”. The compound also had a solubility in [10] (phosphate-buffered saline) of 13.1 mg/mL (≈ 86.7 mM).
Turning to `CCN(CC)CC(=O)Oc1ccc(NC(C)=O)cc1` [Propacetamol, 4-acetamidophenyl 2-(diethylamino)acetate], the Local tolerance profile in series [7] (setting [14]) is 49%; in series [7] (setting [15]), 90%.
Take `CC(=O)Nc1ccc(OC(=O)NCCS(=O)[O-])cc1.[Na+]` [Test Article B, Sodium 2-((4-acetamidophenoxy)carbonylamino)ethanesulfinate]: the “Conversion to APAP in blood incubations versus buffer incubations” value in series [11] and in series [12] was “nearly equivalent” each time. Moreover, the Stability in buffer entry in [1] and in series [5] was “not stable” in each case. In series [3], the “Stability in PBS” value was “not stable”. Besides, the “Acetaminophen exposure compared with administration of acetaminophen” value in [4] is “substantially lower”. Further, the solubility in series [10] amounted to 424 mg/mL.
`CC(=O)Nc1ccc(OC(=O)NCCS(=O)(=O)[O-])cc1.[Na+]` [Test Article C, Sodium 2-((4-acetamidophenoxy)carbonylamino)ethanesulfonate, reference compound]: the “Conversion to APAP in blood incubations versus buffer incubations” value in series [11] and in [12] was “nearly equivalent” each time. Further, the Stability in buffer entry in series [1] and in series [5] was “not stable” in each case. In series [3], the “Stability in PBS” value is recorded as “not stable”. Besides, the “Acetaminophen exposure compared with administration of acetaminophen” value in series [4] is listed as “substantially lower”. The same compound came in with a solubility in series [10] of 492 mg/mL.
Consider `CC(=O)Nc1ccc(OP(=O)(O)O)cc1` [4-acetamidophenyl dihydrogen phosphate], for which the “Time required in vitro to yield acetaminophen from the derivative” value in the series with alkaline phosphatase is “about 15 hours”. Also, the Water solubility in series [9] is on record as 50 g per 100 mL.
